Patent publication US20250017938A1, “COMBINATION THERAPIES OF FASN INHIBITORS WITH THYROID HORMONE RECEPTOR AGONISTS” (Sagimet Biosciences Inc., priority 2023, published 2025)
pIC50: −log10 of the molar value.

Key:
[1] = target: FASN enzyme isolated from SKBr3 cells (Homo sapiens (Human), UniProt P49327); assay: FASN biochemical activity (fluorescence measurement of CoA release, CPM dye)
[2] = test system: primary isolated human stellate cells (HSC); assay: Primary human hepatic stellate cells stimulated with TGF-β1, total collagen (in vitro fibrosis study); format: cell-based; details: primary human hepatic stellate cells, 10 ng/ml TGF-β, 4 days
Method: Primary isolated human stellate cells (HSC) were investigated in the study. The cells were maintained under standard culture conditions and in established culture medium.
Study Model: Viability screening and in vitro fibrosis study, 24 well plate format, 4 day stimulation with recombinant human TGF-β1. In this study, 2.5 and 10 ng/ml TGF-β1 were used.
(§1) Primary HSCs were seeded on t=day-1 and cultured in 24 well plates for 24 hours. […] Cells were incubated for an additional 96 hours (t=day 4). Conditioned medium samples were collected for expression analysis of secreted proteins. All wells were used for an alamarBlue assay to assess cell viability/metabolic activity. A separate plate was used at t=day 0 as reference for the alamarBlue assay. Next, the cell-matrix fraction was collected for measurement of total collagen and cell protein levels.
Both test compounds were dissolved in DMSO. Working concentrations were prepared from a stock concentration that is 1000-fold that of the highest working concentration. All controls were incubated with the same DMSO concentration as that present in the highest working concentration.
Total Collagen assay was performed according to the manufacturer's protocol.
Total Protein assay, for use with the Total Collagen assay, was performed according to the manufacturer's protocol. Protein levels were used to correct for differences in cell contents between samples.
Significance of differences between the groups was calculated either parametrically or non-parametrically, using the computer program SPSS. For nonparametric calculations, a Kruskal-Wallis test for several independent samples was used, followed by a Mann-Whitney U-test for independent samples. For parametric calculations, a One-way ANOVA for multiple comparisons was used, followed by Dunnett or Bonferroni's correction.

[3] = test system: Male C57BL/6J Gubra-Amylin-MASH (GAN) diet-induced obese mice; assay: Gubra-Amylin-MASH (GAN) diet-induced obese mice with biopsy-confirmed MASH, 6 weeks treatment; format: in vivo, mouse; details: 6-week treatment; for response rate (RR) for reduction of NAS ≥2-points: TVB-3664 5 mg/kg, resmetirom 3 mg/kg PO QD
Method: This study was designed to evaluate FASN inhibitor alone and in combination with RES on liver histology in biopsy-confirmed MASH mice.
Method: Male C57BL/6J Gubra-Amylin-MASH (GAN) diet-induced obese mice with histologically confirmed NAS (≥5) and fibrosis stage (F1-F3) were randomized and treated with either TVB-3664 (a surrogate FASN inhibitor for denifanstat, 5 mg/kg, PO, QD) or resmetirom (RES; MGL-3196)(3 mg/kg, PO, QD) individually or in combination for 6 weeks (n=10-12 for each group, Gubra, Denmark). Treatment groups are NC (normal chow diet control); VEH (MASH vehicle control); FASN (TVB-3664, FASN inhibitor, surrogate for denifanstat); RES (resmetirom) and COMBO (combination of TVB-3664 and resmetirom).

[4] = test system: Male Ldlr -/-. Leiden mice fed with fast food diet (FFD); assay: LDL receptor knockout (Ldlr-/-.Leiden) NASH mice on fast food diet, 10 weeks treatment; format: in vivo, mouse; details: for plasma ALT/AST / plasma total cholesterols / plasma triglycerides: TVB-3664 5 mg/kg, resmetirom 3 mg/kg PO QD alone or in combination, 4 weeks, sustained to 10 weeks; for LDL-C / VLDL-C: lipoprotein analysis
Method: This study was designed to evaluate FASN inhibitor alone and in combination with resmetirom on plasma biomarkers and liver histology in LDL receptor knockout (Ldlr−/−. Leiden) NASH mice. FASN inhibitor and resmetirom were also evaluated in vitro in hepatic stellate cells (HSCs) for direct anti-fibrotic effects.
Male Ldlr −/−. Leiden mice were fed with fast food diet (FFD) for 18 weeks to induce NASH features and treated with either TVB-3664 (a surrogate FASN inhibitor for denifanstat, 5 mg/kg, PO, QD) or THRb agonist resmetirom (MGL-3196, 3 mg/kg, PO, QD) alone or in combination for 10 weeks. Endpoints included liver enzymes, lipids and liver histology. Primary human HSCs were stimulated by TGF-b1 and treated with denifanstat or resmetirom at various concentrations (TNO, Netherlands).

NASH/MASH [5] = details: NASH/MASH trials; cited from earlier work
[6] = test system: primary isolated human stellate cells (HSC); assay: Primary human hepatic stellate cells stimulated with TGF-β1, PAI-1 secretion; format: cell-based; details: primary human HSCs, TGF-b1-stimulated
Method: as §1

[7] = test system: C57BL/6J mice fed a high-fat/fructose/cholesterol diet; assay: Reversal of established diet-induced, biopsy-confirmed NASH in mice (HFFCD 44 weeks + 8 weeks treatment); format: in vivo, mouse; details: pirfenidone co-administered with Compound 002-386, 8 weeks
Source text: C57BL/6J mice were fed a high-fat/fructose/cholesterol diet (HFFCD) for 44 weeks. For an additional eight weeks, animals continued a high-fat/fructose/cholesterol diet and received oral once-per-day treatments of either Compound 002-386, the anti-fibrotic pirfenidone, both Compound 002-386 and pirfenidone, or vehicle control. At the end of the study, analyses included histological assessment (NAFLD Activity Score (NAS) and Fibrosis Stage), gene expression (liver) total triglyceride and cholesterol content (liver and plasma), levels of alanine transaminase (ALT), and aspartate transaminase (AST) in plasma and serum cytokine levels. […]
Blood and plasma assays (triglycerides (TG), total-cholesterol (TC), alanine transaminase (ALT), aspartate transaminase (AST)): Blood samples were collected in heparinized tubes and plasma was separated and stored at −80° C. until analysis. TG, TC, ALT, AST were measured using commercial kits (Roche Diagnostics, Germany) on the Cobas™ C-501 autoanalyzer according to the manufacturer's instructions.
NAFLD activity score (NAS) and fibrosis stage: Liver samples were fixed in formalin, paraffin embedded, and sections were stained with hematoxylin and eosin (H&E) and Sirius Red. Samples were scored for NAS and fibrosis stage (outlined below) using of the clinical criteria outlined by Kleiner et al. 2005. […]

NASH/MASH [8] = details: cited from earlier work

Question: With N#Cc1ccc(C2(F)CCN(C(=O)c3ccc(Cl)c(NC(=O)c4ccc(N5CCC5)nc4)c3)CC2)nc1 [Compound 001-57] as the compound, how does the pIC50 [1] read?
Answer: 7.52

Question: With CCc1cc(C)c(-c2ncc(C3CCOC3)[nH]2)cc1C(=O)N1CCC(c2ccc(C#N)cc2)CC1 (stereo not shown) [Compound 001-192] as the compound, how does the pIC50 [1] read?
Answer: 6.52

Question: With CCc1nnc(-c2cc(C(=O)N3CCC(c4ccc(C#N)cc4)CC3)c(C)cc2C2CC(F)(F)C2)o1 [Compound 001-231] as the compound, how does the pIC50 [1] read?
Answer: 6.52

Question: With CC(C)CNC(=O)Nc1cc(C(=O)N2CCC(c3ccc(C#N)cn3)CC2)cnn1 [Compound 001-305] as the compound, how does the pIC50 [1] read?
Answer: < 4.30

Question: Which collagen production [2] does the source give for CC(C)c1cc(Oc2c(Cl)cc(-n3nc(C#N)c(=O)[nH]c3=O)cc2Cl)n[nH]c1=O [Compound A, resmetirom] here?
Answer: did not display the same effect

Question: What about the “lobular inflammation, 1-point RR” value [3] of the same compound?
Answer: 8%

Question: And the “steatosis, RR for 1-point reduction” value [3]?
Answer: 50%

Question: What does the source list for COCc1[nH]c(C(F)(F)F)nc1-c1cc(C(=O)N2CC(c3ccc(C#N)cc3)C2)c(C)cc1C [TVB-3664]?
Answer: plasma ALT/AST [4]: rapidly reduced; plasma total cholesterols [4]: rapidly reduced; plasma triglycerides [4]: rapidly reduced; LDL-C [4]: significantly reduced; VLDL-C [4]: significantly reduced; lobular inflammation, 1-point RR [3]: 42%; steatosis, RR for 1-point reduction [3]: 17%; response rate (RR) for reduction of NAS ≥2-points [3]: 33%

Question: What does the source list for Cc1nnc(-c2cc(C(=O)N3CCC(c4ccc(C#N)cc4)CC3)c(C)cc2C2CCC2)[nH]1 [denifanstat]?
Answer: collagen production [2]: decreased; liver fat and biomarkers associated with inflammation and fibrosis (NASH/MASH [5]): improvements in liver fat and biomarkers associated with inflammation and fibrosis; plasminogen 1 (PAI-1) secretion [6]: decreased

Question: For Cc1ccc(=O)n(-c2ccccc2)c1 [pirfenidone], which liver fibrosis [7] is on record?
Answer: further reduced liver fibrosis

Question: With CC(C)c1cc(Oc2c(Cl)cc(-n3nc(C#N)c(=O)[nH]c3=O)cc2Cl)n[nH]c1=O [resmetirom] as the compound, how does the “NASH/MASH resolution and fibrosis improvement” value (NASH/MASH [8]; Phase III clinical trial) read?
Answer: significant NASH/MASH resolution and fibrosis improvement

Question: What about the histology response rates (NASH/MASH [8]; human, in vivo) of the same compound?
Answer: < 50%

Question: And the “plasma ALT/AST” value [4]?
Answer: rapidly reduced

Question: And the plasma total cholesterols [4]?
Answer: rapidly reduced

Question: And the plasma triglycerides [4]?
Answer: rapidly reduced

Question: And the LDL-C [4]?
Answer: significantly reduced

Question: And the VLDL-C [4]?
Answer: significantly reduced

Question: What about the “plasminogen 1 (PAI-1) secretion” value [6] of the same compound?
Answer: not

Question: What about the “response rate (RR) for reduction of NAS ≥2-points” value [3] of the same compound?
Answer: 25%
